Values quoted from earlier work, collected in patent US20250302750A1, “PHARMACEUTICAL COMPOSITION OF BEMPEDOIC ACID” (Renata Pharmaceuticals (Ireland) Ltd, priority 2022, published 2025).

Assays:
[1] = solid state; per US 20180338922

- Solubility in water: poorly soluble
- Flow characteristics [1]: poor flow characteristics
- Stickiness [1]: very sticky
Compound: CC(C)(CCCCCC(O)CCCCCC(C)(C)C(=O)O)C(=O)O [Bempedoic acid]
